Literature values, collected in patent US20140171511A1, “Cough Reducing Product” (priority 2011, published 2014).

Assays:
[1] = relative to capsaicin, used to calculate equivalent dose
[2] = tested on: IBS and gut pain sensitivity; settings: regular intake of capsaicin powder
[3] = inhaled capsaicin as research tool, past 2 decades

| SMILES | Typical equivalent strength [1] [%] | IBS and gut pain sensitivity [2] | serious adverse reactions [3] |
| --- | --- | --- | --- |
| COc1cc(CNC(=O)CCCC/C=C/C(C)C)ccc1O [Capsaicin, 8-Methyl-N-vanillyl-trans-6-nonenamide] | 100 | improvement | no serious adverse reactions reported |
| COc1cc(CNC(=O)CCCCCC(C)C)ccc1O [Nordihydrocapsaicin] | 10 | – | – |
